Experimental findings from patent US20060160703A1, “Selective herbicides based on substituted cyclic dicarbonyl compounds and safeners” (priority 2003, published 2006) are described below.

Holding throughout (format): in vivo
The test system of assay [1] is Summer barley. Kind of assay: Outdoor trial, post-emergence, tank mix (Example 1). The conditions noted are these: herbicide 0.120 kg/ha, combinations: tank mix mefenpyr-diethyl:compound (I) = 2:1, 100% = plants have died, 0% = like control. The method, then: (§1) Seeds of monocotyledonous and dicotyledonous weed and crop plants are placed into sandy loam in wood fiber pots or in plastic pots, covered with soil and cultivated in a greenhouse, including during the vegetation period outdoors outside of the greenhouse, under good growth conditions. Two-three weeks after sowing, the test plants are treated at the one- to three-leaf stage. […], formulated as wettable powders (WP) or emulsifiable concentrates (EC) are, in various dosages with a water application rate of 300 l/ha (converted), with added wetting agent (0.2 to 0.3%) sprayed onto the plants and the surface of the soil. Three to four weeks after the treatment of the test plants, the effect of the preparations is rated visually in comparison to untreated controls (herbicidal effect in percent (%): 100% effect=plants have died, 0% effect=like control plants).
(§2) If it is additionally to be tested as to whether safeners can improve the plant compatibility of test substances in the case of crop plants, the following options are used for applying the safener:
(§3) the safener is applied together with the test substance as a tank mix (the amount of safener is stated in g/ha or as a ratio, based on the herbicide).
(§4) By comparing the effect of the test substances on crop plants without or with safener treatment, it is possible to assess the effect of the safener substance. [drawing 61] [drawing 62]
(§5) Outdoor trial/Post-emergence
(§6) Ratio mefenpyr-diethyl:compound of the formula (I)=2:1

In assay [2] the test system is Summer wheat. Described as above. The conditions noted are these: herbicide 0.120 kg/ha, combinations: tank mix mefenpyr-diethyl:compound (I) = 2:1. The method, then: as §1, §2, §3, §4, §5, §6
A further assay deals with Winter barley. The assay is described as above. The conditions noted are these: herbicide 0.120 kg/ha, combinations: tank mix mefenpyr-diethyl:compound (I) = 2:1. The method, then:
as §1, §2, §3, §4, §5, §6

The subject of a further assay is Winter wheat. Described as above. Particulars: herbicide 0.120 kg/ha, combinations: tank mix mefenpyr-diethyl:compound (I) = 2:1. The method, then:
as §1, §2, §3, §4, §5, §6

In assay [3] the test system is Corn of the Cultivar Lorenzo. Kind of assay: Greenhouse trial, post-emergence, corn (Example 3). The method, then:
as §1, §2
seeds of the crop plants are, before sowing, dressed with the safener substance (the amount of safener is stated in percent, based on the weight of the seed)
(§7) before the application of the test substances, the crop plants are sprayed with the safener at a certain application rate per hectare (usually 1 day before the application of the test substances).
as §4
Greenhouse Trial/Post-Emergence
Corn of the Cultivar Lorenzo
Addition of Safener: • a) Before sowing, seeds of the crop plants are dressed with the compound of the formula (IIe-5) (0.5% of safener, based on the weight of the seeds). • b) One day before the application of the compounds of the formula (I), the crop plants are treated with the compound of the formula (IIe-5) (application rate 100 g/ha). • c) One day before the application of the compounds of the formula (I), the crop plants are treated with isoxadifen (application rate 100 g/ha)
For the spray treatment, the herbicide was formulated as WP20 and the safener as WP10.

The test system of assay [4] is Summer barley. Kind of assay: Greenhouse trial, post-emergence, safener one day before (Example 2). Particulars: combinations: safener 100 g/ha one day before. The method, then: as §1, §2, §7, §4
(§8) Greenhouse trial/Post-emergence
(§9) One day before the application of the compounds of the formula (I), the crop plants are treated with the safener (application rate 100 g/ha).

The subject of assay [5] is Summer wheat. Described as above. Particulars: combinations: safener 100 g/ha one day before. The method, then: as §1, §2, §7, §4, §8, §9
Where [6] appears, read: herbicide 0.013 kg/ha; greenhouse, post-emergence; corn cultivar Lorenzo; safener by method a), b) or c) as.
The mark [7] stands for this setting: herbicide 0.025 kg/ha; greenhouse, post-emergence; corn cultivar Lorenzo; safener by method a), b) or c) as.
The mark [8] stands for this setting: herbicide 0.050 kg/ha; greenhouse, post-emergence; corn cultivar Lorenzo; safener by method a) IIe-5 seed dressing 0.5%, b) IIe-5 100 g/ha one day before, c) isoxadifen 100 g/ha one day before.

Consider `CCc1cc(Cl)cc(Cl)c1C1(Cl)C(=O)NC2(CCC(OC)CC2)C1=O` (stereo not drawn) [I-1-1], for which the “herbicidal effect in percent, Summer barley” value with Summer barley [1] was determined as 40%. For the same compound, the “herbicidal effect in percent, Summer wheat” value in the assay with Summer wheat [2] came out at 15%. Besides, the “herbicidal effect in percent, Winter barley” value in the assay with Winter barley stood at 30%. For the same compound, the “herbicidal effect in percent, Winter wheat” value in the assay with Winter wheat was 20%. In addition, the “herbicidal effect in percent, Corn” value in assay [3] (setting [6]) came to 99%; in assay [3] (setting [7]), 100%; in assay [3] (setting [8]) it was 100%.

Take `CCc1cc(Br)cc(CC)c1C1(Cl)C(=O)NC(C)(C)C1=O` (stereo not drawn) [I-1-3]: the “herbicidal effect in percent, Corn” value in assay [3] (setting [6]) is 0%; in assay [3] (setting [7]) it was 0%; in assay [3] (setting [8]), 85%.

Consider `CCc1cc(Br)cc(CC)c1C1(Cl)C(=O)NC2(CCCCC2)C1=O` (stereo not drawn) [I-1-4], for which the “herbicidal effect in percent, Summer barley” value in the assay with Summer barley [4] (herbicide 0.100 kg/ha) came to 10%. In addition, in the assay with Summer wheat [5] (herbicide 0.100 kg/ha), the “herbicidal effect in percent, Summer wheat” value is 10%.

Consider `CCc1cc(Cl)cc(Br)c1C1(Cl)C(=O)NC2(CCCCC2)C1=O` (stereo not drawn) [I-1-5], for which the entries for the “herbicidal effect in percent, Summer barley” value in the assay on Summer barley [4] (herbicide 0.025 kg/ha), with Summer barley [4] (herbicide 0.050 kg/ha) and in the assay with Summer barley [4] (herbicide 0.100 kg/ha) were 20%, 50% and 92%, respectively. Besides, the “herbicidal effect in percent, Summer wheat” value in the assay with Summer wheat [5] (herbicide 0.025 kg/ha) turned out to be 30%; in the assay with Summer wheat [5] (herbicide 0.050 kg/ha) it was 60%; in the assay on Summer wheat [5] (herbicide 0.100 kg/ha) it was 65%.

With `Cc1cc(-c2ccc(Cl)cc2)cc(C)c1C1(Cl)C(=O)N2CCCCN2C1=O` [I-4-1], the “herbicidal effect in percent, Summer barley” value in the assay on Summer barley [4] (herbicide 0.025 kg/ha) is on record as 20%; in the assay on Summer barley [4] (herbicide 0.050 kg/ha), 80%; with Summer barley [4] (herbicide 0.100 kg/ha), 80%. Also, the “herbicidal effect in percent, Summer wheat” value was 20% in the assay on Summer wheat [5] (herbicide 0.025 kg/ha), 60% with Summer wheat [5] (herbicide 0.050 kg/ha) and 60% with Summer wheat [5] (herbicide 0.100 kg/ha).

On to `Cc1cc(-c2ccc(Cl)cc2)cc(C)c1C1(Cl)C(=O)N2CCOCCN2C1=O` [I-4-2], for which the “herbicidal effect in percent, Summer barley” value in the assay with Summer barley [4] (herbicide 0.025 kg/ha) is 40%; in the assay with Summer barley [4] (herbicide 0.050 kg/ha), 95%; in the assay with Summer barley [4] (herbicide 0.100 kg/ha), 97%. For the same compound, the “herbicidal effect in percent, Summer wheat” value in the assay on Summer wheat [5] (herbicide 0.025 kg/ha) was determined as 60%; in the assay on Summer wheat [5] (herbicide 0.050 kg/ha), 97%; in the assay on Summer wheat [5] (herbicide 0.100 kg/ha), 97%.
